Measurements taken from PubChem BioAssay (NCI).
Values joined by “and” are separate entries in the source; they are usually repeats but may differ in a detail not shown here. Equal entries are not always repeated.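 Protocol summary: plate cells (96-well), add compound at 5 concentrations, incubate 48 h, interpolate endpoints linearly. GI50 = concentration required for 50% inhibition of growth. Definition used: TGI = concentration required for complete inhibition of growth.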

Tests used:
Assay in all cases: DTP human tumour cell line panel, 48 h
786-0 renal = tested on: 786-0 renal
A498 renal = tested on: A498 renal
A549 NSCLC = tested on: A549 NSCLC
ACHN renal = tested on: ACHN renal
BT-549 breast = tested on: BT-549 breast
CAKI-1 renal = tested on: CAKI-1 renal
CCRF-CEM leukemia = tested on: CCRF-CEM leukemia
COLO 205 colon = tested on: COLO 205 colon
DU-145 prostate = tested on: DU-145 prostate
EKVX NSCLC = tested on: EKVX NSCLC
HCC-2998 colon = tested on: HCC-2998 colon
HCT-116 colon = tested on: HCT-116 colon
HCT-15 colon = tested on: HCT-15 colon
HL-60(TB) leukemia = tested on: HL-60(TB) leukemia
HOP-62 NSCLC = tested on: HOP-62 NSCLC
HOP-92 NSCLC = tested on: HOP-92 NSCLC
HS 578T breast = tested on: HS 578T breast
HT29 colon = tested on: HT29 colon
IGROV1 ovarian = tested on: IGROV1 ovarian
K-562 leukemia = tested on: K-562 leukemia
KM12 colon = tested on: KM12 colon
LOX IMVI melanoma = tested on: LOX IMVI melanoma
M14 melanoma = tested on: M14 melanoma
MALME-3M melanoma = tested on: MALME-3M melanoma
MCF7 breast = tested on: MCF7 breast
MDA-MB-231 breast = tested on: MDA-MB-231 breast
MDA-MB-435 = tested on: MDA-MB-435
MDA-N = tested on: MDA-N
MOLT-4 leukemia = tested on: MOLT-4 leukemia
NCI-H226 lung = tested on: NCI-H226 lung
NCI-H23 lung = tested on: NCI-H23 lung
NCI-H460 lung = tested on: NCI-H460 lung
NCI-H522 lung = tested on: NCI-H522 lung
NCI/ADR-RES ovarian = tested on: NCI/ADR-RES ovarian
OVCAR-3 ovarian = tested on: OVCAR-3 ovarian
OVCAR-4 ovarian = tested on: OVCAR-4 ovarian
OVCAR-5 ovarian = tested on: OVCAR-5 ovarian
OVCAR-8 ovarian = tested on: OVCAR-8 ovarian
PC-3 prostate = tested on: PC-3 prostate
RPMI-8226 leukemia = tested on: RPMI-8226 leukemia
RXF 393 renal = tested on: RXF 393 renal
SF-268 CNS = tested on: SF-268 CNS
SF-295 CNS = tested on: SF-295 CNS
SF-539 CNS = tested on: SF-539 CNS
SK-MEL-2 melanoma = tested on: SK-MEL-2 melanoma
SK-MEL-28 melanoma = tested on: SK-MEL-28 melanoma
SK-MEL-5 melanoma = tested on: SK-MEL-5 melanoma
SK-OV-3 ovarian = tested on: SK-OV-3 ovarian
SN12C renal = tested on: SN12C renal
SNB-19 CNS = tested on: SNB-19 CNS
SNB-75 CNS = tested on: SNB-75 CNS
SW-620 colon = tested on: SW-620 colon
T-47D breast = tested on: T-47D breast
TK-10 renal = tested on: TK-10 renal
U251 CNS = tested on: U251 CNS
UACC-257 melanoma = tested on: UACC-257 melanoma
UACC-62 melanoma = tested on: UACC-62 melanoma
UO-31 renal = tested on: UO-31 renal

For `COCCOC1=CC(=O)c2c(O)ccc(O)c2C1=O`, the GI50 (786-0 renal) was 1.84 µM, the TGI (786-0 renal) was 3.06 µM and 3.61 µM and the GI50 (A498 renal) was 2.16 µM. The TGI (A498 renal) was 3.18 µM and 3.92 µM, the GI50 (A549 NSCLC) was 1.74 µM and the TGI (A549 NSCLC) was 4.15 µM and 3.78 µM. For the same compound, the GI50 (ACHN renal) was 1.63 µM, the TGI (ACHN renal) was 3.41 µM and 3.14 µM and the TGI (BT-549 breast) was 3.17 µM. The GI50 (CAKI-1 renal) was 1.68 µM, the TGI (CAKI-1 renal) was 4.37 µM and 3.14 µM and the GI50 (CCRF-CEM leukemia) was 1.92 µM. For the same compound, the TGI (CCRF-CEM leukemia) was 7.01 µM and 4.31 µM, the GI50 (COLO 205 colon) was 0.32 µM and the TGI (COLO 205 colon) was 0.661 µM and 1.2 µM. For the same compound, the GI50 (DU-145 prostate) was 0.5 µM, the TGI (DU-145 prostate) was 2.12 µM and 1.62 µM and the TGI (EKVX NSCLC) was 3.88 µM and 3.93 µM. For the same compound, the GI50 (HCC-2998 colon) was 1.7 µM, the TGI (HCC-2998 colon) was 4.03 µM and 3.12 µM and the GI50 (HCT-116 colon) was 1.29 µM. The TGI (HCT-116 colon) was 1 µM and 2.64 µM, the GI50 (HCT-15 colon) was 1.6 µM and the TGI (HCT-15 colon) was 2.62 µM and 3.38 µM. For the same compound, the GI50 (HL-60(TB) leukemia) was 0.305 µM, the TGI (HL-60(TB) leukemia) was 2.26 µM and 1.04 µM and the GI50 (HOP-62 NSCLC) was 1.9 µM. The TGI (HOP-62 NSCLC) was 1.8 µM and 3.31 µM, the GI50 (HOP-92 NSCLC) was 1.54 µM and the TGI (HOP-92 NSCLC) was 3.7 µM and 3.59 µM. The TGI (HS 578T breast) was 6.88 µM, the GI50 (HT29 colon) was 0.995 µM and the TGI (HT29 colon) was 2.05 µM and 2.64 µM. The TGI (IGROV1 ovarian) was 3.11 µM and 2.97 µM, the GI50 (K-562 leukemia) was 1.4 µM and the TGI (K-562 leukemia) was 5.77 µM and 3.57 µM. The GI50 (KM12 colon) was 3.05 µM, the TGI (KM12 colon) was 3.54 µM and 11.7 µM and the GI50 (LOX IMVI melanoma) was 0.914 µM. For the same compound, the TGI (LOX IMVI melanoma) was 2.34 µM and 2.13 µM, the GI50 (M14 melanoma) was 0.818 µM and the TGI (M14 melanoma) was 0.353 µM and 2.16 µM. The GI50 (MALME-3M melanoma) was 0.808 µM, the TGI (MALME-3M melanoma) was 0.328 µM and 2.07 µM and the GI50 (MCF7 breast) was 0.51 µM. The TGI (MCF7 breast) was 0.933 µM and 1.92 µM, the GI50 (MDA-MB-231 breast) was 2.45 µM and the TGI (MDA-MB-231 breast) was 3.23 µM and 6.14 µM. The TGI (MDA-MB-435) was 0.324 µM and 0.323 µM, the GI50 (MDA-N) was 0.359 µM and the TGI (MDA-N) was 0.341 µM and 1.13 µM. For the same compound, the GI50 (MOLT-4 leukemia) was 1.44 µM, the TGI (MOLT-4 leukemia) was 8.03 µM and 3.53 µM and the TGI (NCI-H226 lung) was 4.01 µM and 4.16 µM. The GI50 (NCI-H23 lung) was 1.44 µM, the TGI (NCI-H23 lung) was 2.43 µM and 3.34 µM and the GI50 (NCI-H460 lung) was 2.01 µM. The TGI (NCI-H460 lung) was 3.11 µM and 4.2 µM, the GI50 (NCI-H522 lung) was 1.69 µM and the TGI (NCI-H522 lung) was 4.44 µM and 3.37 µM. For the same compound, the TGI (NCI/ADR-RES ovarian) was 7.41 µM and 5.63 µM, the GI50 (OVCAR-3 ovarian) was 0.319 µM and the TGI (OVCAR-3 ovarian) was 1.86 µM and 1.13 µM. For the same compound, the GI50 (OVCAR-4 ovarian) was 1.61 µM, the TGI (OVCAR-4 ovarian) was 3.3 µM and 2.97 µM and the GI50 (OVCAR-5 ovarian) was 1.92 µM. For the same compound, the TGI (OVCAR-5 ovarian) was 2.96 µM and 3.46 µM, the TGI (OVCAR-8 ovarian) was 3.49 µM and the GI50 (PC-3 prostate) was 2.67 µM. For the same compound, the TGI (PC-3 prostate) was 4.77 µM and 8.28 µM, the GI50 (RPMI-8226 leukemia) was 2.03 µM and the TGI (RPMI-8226 leukemia) was 8.86 µM and 5.06 µM. The GI50 (RXF 393 renal) was 1.5 µM, the TGI (RXF 393 renal) was 3.63 µM and 2.94 µM and the GI50 (SF-268 CNS) was 3.29 µM. The TGI (SF-268 CNS) was 3.54 µM and 10.9 µM, the GI50 (SF-295 CNS) was 2.06 µM and the TGI (SF-295 CNS) was 3.09 µM and 3.93 µM. For the same compound, the TGI (SF-539 CNS) was 3.12 µM and 3.16 µM, the GI50 (SK-MEL-2 melanoma) was 1.86 µM and the TGI (SK-MEL-2 melanoma) was 2.58 µM and 3.82 µM. The GI50 (SK-MEL-28 melanoma) was 1.75 µM, the TGI (SK-MEL-28 melanoma) was 2.9 µM and 3.37 µM and the TGI (SK-MEL-5 melanoma) was 0.3 µM and 0.295 µM. It also gave a GI50 (SK-OV-3 ovarian) of 17.9 µM, a TGI (SK-OV-3 ovarian) of 31.7 µM and a GI50 (SN12C renal) of 1.46 µM. For the same compound, the TGI (SN12C renal) was 3.03 µM and 2.83 µM, the TGI (SNB-19 CNS) was 3.82 µM and the GI50 (SNB-75 CNS) was 1.69 µM. The TGI (SNB-75 CNS) was 3.43 µM and 3.09 µM, the GI50 (SW-620 colon) was 1.32 µM and the TGI (SW-620 colon) was 6.55 µM and 3.18 µM. For the same compound, the TGI (T-47D breast) was 4.83 µM, the GI50 (TK-10 renal) was 2.9 µM and the TGI (TK-10 renal) was 3.57 µM and 5.78 µM. The TGI (U251 CNS) was 3.55 µM and 3.54 µM, the GI50 (UACC-257 melanoma) was 0.626 µM and the TGI (UACC-257 melanoma) was 0.409 µM and 2.06 µM. The GI50 (UACC-62 melanoma) was 1.62 µM, the TGI (UACC-62 melanoma) was 3.74 µM and 3.58 µM and the GI50 (UO-31 renal) was 1.63 µM. For the same compound, the TGI (UO-31 renal) was 3.83 µM and 3.35 µM.
